The values that follow are results of earlier work, collected in patent US20240325430A1, “MULTIPLE FOLATE FORMULATION AND USE THEREOF” (JAYMAC PHARMACEUTICAL LLC, priority 2012, published 2024).

The data set relates to hydrocephalic Texas rats. The conditions noted are these: injected into hydrocephalic Texas rats during fetal development; J Neuropathol Exp Neurol 2009.

`Nc1nc2ncc(CNc3ccc(C(=O)N[C@@H](CCC(=O)O)C(=O)O)cc3)nc2c(=O)[nH]1` [folic acid]: the incidence of hydrocephalus result is listed as “significant increase”.
